Tests used:
Assay type in all cases: in vivo
[1] = system: unfed adult cat fleas (Ctenocephalides felis); assay: Ctenocephalides felis oral test; conditions: application rate 100 ppm, in citrated cattle blood, after 2 days
Experimental: Ctenocephalides felis-Oral Test
(§1) • Solvent: dimethyl sulphoxide
To produce a suitable preparation of active compound, 10 mg of active compound are mixed with 0.5 ml of dimethyl sulphoxide. Dilution with citrated cattle blood gives the desired concentration.
About 20 unfed adult cat fleas (Ctenocephalides felis) are placed into a chamber which is closed at the top and bottom with gauze. A metal cylinder whose bottom end is closed with parafilm is placed onto the chamber. The cylinder contains the blood/active compound preparation, which can be imbibed by the fleas through the parafilm membrane.
After 2 days, the kill in % is determined. 100% means that all of the fleas have been killed; 0% means that none of the fleas have been killed.

[2] = system: Tick nymphs (Amblyomma hebraeum); assay: Amblyomma hebaraeum test; conditions: application rate 100 ppm; nymphs immersed for one minute; after 42 days
Experimental: as §1
(§2) To produce an appropriate active ingredient formulation, 10 mg of active ingredient are mixed with 0.5 ml of dimethyl sulphoxide, and the concentrate is diluted with water to the desired concentration.
Tick nymphs (Amblyomma hebraeum) are placed into perforated plastic beakers and immersed in the desired concentration for one minute. The ticks are transferred on filter paper into a Petri dish and stored in a climate-controlled cabinet.
After 42 days, the kill in % is determined. 100% means that all of the ticks have been killed; 0% means that none of the ticks have been killed.

[3] = system: engorged adult female cattle ticks (Boophilus microplus); assay: Boophilus microplus injection test; conditions: application rate 20 μg/animal; injection into the abdomen; assessed after 7 days
Experimental: Boophilus microplus-Injection Test
as §1
To produce an appropriate active ingredient formulation, 10 mg of active ingredient are mixed with 0.5 ml of solvent and the concentrate is diluted with solvent to the desired concentration.
1 μl of the active ingredient solution is injected into the abdomen of 5 engorged adult female cattle ticks (Boophilus microplus). The animals are transferred into dishes and kept in a climate-controlled room.
(§3) Efficacy is assessed after 7 days by laying of fertile eggs. Eggs which are not visibly fertile are stored in a climate-controlled cabinet until the larvae hatch after about 42 days. An efficacy of 100% means that none of the ticks has laid any fertile eggs; 0% means that all the eggs are fertile.

[4] = system: adult dog ticks (Rhipicephalus sanguineus); assay: Rhipicephalus sanguineus in vitro contact test with adult brown dog ticks; conditions: coated test tube, after 48 h
Experimental: Rhipicephalus sanguineus-In Vitro Contact Tests with Adult Brown Dog Ticks
For the coating of the test tubes, 9 mg of active compound are first dissolved in 1 ml of acetone p.a. and then diluted to the desired concentration with acetone p.a. 250 μl of the solution are distributed homogeneously on the inner walls and the base of a 25 ml test tube by turning and rocking on an orbital shaker (rocking rotation at 30 rpm for 2 h). With 900 ppm active compound solution and internal surface 44.7 cm^2, given homogeneous distribution, an area-based dose of 5 μg/cm^2 is achieved.
After the solvent has evaporated off, the tubes are populated with 5-10 adult dog ticks (Rhipicephalus sanguineus), sealed with a perforated plastic lid and incubated in a horizontal position in the dark at room temperature and ambient humidity. After 48 h, efficacy is determined. To this end, the ticks are knocked to the floor of the tube and incubated on a hotplate at 45-50° C. for not more than 5 min. Ticks which remain motionless on the floor or move in such an uncoordinated manner that they are unable to deliberately avoid the heat by climbing upwards are considered to be dead or moribund.
An efficacy of 100% means that all the ticks were dead or moribund. 0% efficacy means that none of the ticks had been harmed.

[5] = system: larvae of the mustard beetle (Phaedon cochleariae); assay: Phaedon cochleariae spray test; conditions: application rate 100 g/ha; Chinese cabbage leaf discs sprayed; after 7 days
Experimental: Phaedon cochleariae-Spray Test
(§4) • Solvent: 78.0 parts by weight of acetone • 1.5 parts by weight of dimethylformamide • Emulsifier: alkylaryl polyglycol ether
(§5) To produce an appropriate active ingredient formulation, 1 part by weight of active ingredient is dissolved using the specified parts by weight of solvent and made up with water containing an emulsifier concentration of 1000 ppm until the desired concentration is attained. To produce further test concentrations, the preparation is diluted with emulsifier-containing water.
Discs of Chinese cabbage leaves (Brassica pekinensis) are sprayed with an active ingredient formulation of the desired concentration and, after drying, populated with larvae of the mustard beetle (Phaedon cochleariae).
After 7 days, efficacy in % is determined. 100% means that all the beetle larvae have been killed; 0% means that no beetle larvae have been killed.

[6] = system: cattle ticks (Boophilus microplus) Parkhurst strain, SP-resistant; assay: Boophilus microplus dip test; conditions: application rate 100 ppm, assessed after 7 days
Experimental: Boophilus microplus-Dip Test
• Test animals: cattle ticks (Boophilus microplus) Parkhurst strain, SP-resistant • Solvent: dimethyl sulphoxide
10 mg of active ingredient are dissolved in 0.5 ml of dimethyl sulphoxide. For the purpose of producing a suitable formulation, the active compound solution is diluted with water to the concentration desired in each case.
This active ingredient formulation is pipetted into tubes. 8-10 engorged adult female cattle ticks (Boophilus microplus) are transferred into a further tube with holes. The tube is immersed into the active compound preparation, and all the ticks are completely wetted. After the liquid has run out, the ticks are transferred on filter discs into plastic dishes and stored in a climate-controlled room.
as §3

[7] = system: greenhouse red spider mite (Tetranychus urticae); assay: Tetranychus urticae spray test, OP-resistant; conditions: application rate 100 g/ha; bean leaf discs sprayed; after 6 days
Experimental: Tetranychus urticae-Spray Test, OP-Resistant
as §4, §5
Discs of bean leaves (Phaseolus vulgaris) infested by all stages of the greenhouse red spider mite (Tetranychus urticae) are sprayed with an active ingredient formulation of the desired concentration.
After 6 days, efficacy in % is determined. 100% means that all the spider mites have been killed; 0% means that no spider mites have been killed.

[8] = system: adult houseflies (Musca domestica); assay: Musca domestica test; conditions: application rate 100 ppm; sponge with sugar solution; after 2 days
Experimental: as §1, §2
Vessels containing a sponge treated with sugar solution and the active ingredient formulation of the desired concentration are populated with 10 adult houseflies (Musca domestica).
After 2 days, the kill in % is determined. 100% means that all of the flies have been killed; 0% means that none of the flies have been killed.

[9] = system: caterpillars of the armyworm (Spodoptera frugiperda); assay: Spodoptera frugiperda spray test; conditions: application rate 100 g/ha; maize leaf discs sprayed; after 7 days
Experimental: Spodoptera frugiperda-Spray Test
as §4, §5
Leaf discs of maize (Zea mays) are sprayed with an active ingredient formulation of the desired concentration and, after drying, populated with caterpillars of the armyworm (Spodoptera frugiperda).
After 7 days, efficacy in % is determined. 100% means that all the caterpillars have been killed; 0% means that no caterpillars have been killed.

[10] = system: green peach aphid (Myzus persicae); assay: Myzus persicae spray test; conditions: application rate 100 g/ha; Chinese cabbage leaf discs sprayed; after 6 days
Experimental: Myzus persicae-Spray Test
• Solvent: 78 parts by weight of acetone • 1.5 parts by weight of dimethylformamide • Emulsifier: alkylaryl polyglycol ether
as §5
Discs of Chinese cabbage leaves (Brassica pekinensis) infested by all stages of the green peach aphid (Myzus persicae) are sprayed with an active compound preparation of the desired concentration.
After 6 days, efficacy in % is determined. 100% means that all the aphids have been killed; 0% means that no aphids have been killed.

[11] = system: L1 larvae of the Australian sheep blowfly (Lucilia cuprina); assay: Lucilia cuprina test; conditions: application rate 100 ppm; minced horsemeat; after 2 days
Experimental: as §1, §2
About 20 L1 larvae of the Australian sheep blowfly (Lucilia cuprina) are transferred into a test vessel containing minced horsemeat and the active ingredient preparation of the desired concentration.
After 2 days, the kill in % is determined. 100% means that all the larvae have been killed; 0% means that no larvae have been killed.

[12] = system: adult cat fleas (Ctenocephalides felis); assay: Ctenocephalides felis in vitro contact test with adult cat fleas; conditions: application rate 500 g/ha; coated test tube; after 48 h
Experimental: Ctenocephalides felis—In Vitro Contact Tests with Adult Cat Fleas
For the coating of the test tubes, 9 mg of active compound are first dissolved in 1 ml of acetone p.a. and then diluted to the desired concentration with acetone p.a. 250 μl of the solution are distributed homogeneously on the inner walls and the base of a 25 ml test tube by turning and rocking on an orbital shaker (rocking rotation at 30 rpm for 2 h). With 900 ppm active compound solution and internal surface 44.7 cm^2, given homogeneous distribution, an area-based dose of […] is achieved.
After the solvent has evaporated off, the tubes are populated with 5-10 adult cat fleas (Ctenocephalides felis), sealed with a perforated plastic lid and incubated in a horizontal position at room temperature and ambient humidity. After 48 h, efficacy is determined. To this end, the test tubes are stood upright and the fleas are knocked to the base of the tube. Fleas which remain motionless at the base or move in an uncoordinated manner are considered to be dead or moribund.
100% efficacy means that all the fleas were dead or moribund. 0% efficacy means that no fleas were harmed.

[13] = system: southern root-knot nematode (Meloidogyne incognita); assay: Meloidogyne incognita test; conditions: application rate 20 ppm; lettuce in sand; after 14 days
Experimental: Meloidogyne incognita Test
• Solvent: 125.0 parts by weight of acetone
To produce an appropriate active ingredient formulation, 1 part by weight of active ingredient is mixed with the stated amount of solvent and the concentrate is diluted with water to the desired concentration.
Vessels are filled with sand, active ingredient solution, an egg/larvae suspension of the southern root-knot nematode (Meloidogyne incognita) and lettuce seeds. The lettuce seeds germinate and the plants develop. The galls develop on the roots.
After 14 days, the nematicidal efficacy in % is determined by the formation of galls. 100% means that no galls were found; 0% means that the number of galls on the treated plants corresponds to the untreated control.

| SMILES | efficacy (kill of fleas) [1] | efficacy (kill of ticks) [2] | efficacy (laying of fertile eggs) [3] | efficacy (ticks dead or moribund) ([4]; application rate 100 g/ha) | efficacy (beetle larvae killed) [5] | efficacy (laying of fertile eggs) [6] | efficacy (spider mites killed) [7] | efficacy (kill of flies) [8] | efficacy (caterpillars killed) [9] | efficacy (aphids killed) [10] | efficacy (kill of larvae) [11] | efficacy (fleas dead or moribund) [12] | nematicidal efficacy (formation of galls) [13] | efficacy (ticks dead or moribund) ([4]; application rate 20 g/ha) |
| --- | --- | --- | --- | --- | --- | --- | --- | --- | --- | --- | --- | --- | --- | --- |
| Cn1nc(C(F)(F)C(F)(F)F)c(C(F)(F)F)c1-n1cc(-c2cnc(Cl)c(C(=O)NC3(C#N)CC3)c2)nn1 [Ia-1] | 100% | 100% | 100% | 100% | 100% | 100% | 90% | – | – | – | – | – | – | – |
| Cn1nc(C(F)(F)C(F)(F)F)c(C(F)(F)F)c1-n1cc(-c2cnc(Cl)c(C(=O)NC3CC3)c2)nn1 [Ia-2, 2-Chloro-N-cyclopropyl-5-[1-[2-methyl-5-(1,1,2,2,2-pentafluoroethyl)-4-(trifluoromethyl)pyrazol-3-yl]triazol-4-yl]pyridine-3-carboxamide] | 100% | 100% | 100% | 100% | 100% | 100% | 100% | 100% | 100% | 90% | 100% | – | – | – |
| Cc1ncc(-c2cn(-c3c(C(F)(F)F)c(C(F)(F)C(F)(F)F)nn3C)nn2)cc1C(=O)NC1(C#N)CC1 [Ia-3] | 100% | – | 100% | 100% | 100% | – | 100% | 80% | – | 100% | 95% | 100% | – | – |
| Cc1ncc(-c2cn(-c3c(C(F)(F)F)c(C(F)(F)C(F)(F)F)nn3C)nn2)cc1C(=O)NC1CC1 [Ia-4] | 100% | 100% | 100% | 100% | 100% | 100% | 100% | 100% | 100% | 90% | 100% | 100% | 90% | – |
| COc1ncc(-c2cn(-c3c(C(F)(F)F)c(C(F)(F)C(F)(F)F)nn3C)nn2)cc1C(=O)NC1(C#N)CC1 [Ia-5] | 100% | – | 100% | 100% | 100% | – | – | 100% | 100% | – | 100% | – | – | – |
| COc1ncc(-c2cn(-c3c(C(F)(F)F)c(C(F)(F)C(F)(F)F)nn3C)nn2)cc1C(=O)NC1CC1 [Ia-6] | 100% | – | 100% | – | 100% | – | – | 100% | – | – | 100% | – | – | 80% |
